Experimental data: patent US10179125B2, “Substituted pyridines as bromodomain inhibitors” (Zenith Epigenetics Ltd., priority 2014, dated 2019)

Tests used:
Human AML MV-4-11 cells = assay: Inhibition of cell proliferation in MV4-11 cells (CellTiter Aqueous One); format: cell-based; conditions: 72 h; for IC50: Homo sapiens
Description: MV4-11 cells (CRL-9591) were plated at a density of 5×10^4 cells per well in 96 well flat bottom plates and treated with increasing concentrations of test compound or DMSO (0.1%) in IMDM media containing 10% FBS and penicillin/streptomycin. Triplicate wells were used for each concentration and a well containing only media was used as a control. Plates were incubated at 37° C., 5% CO2 for 72 h before adding 20 μL of the CellTiter Aqueous One Solution (Promega) to each well and incubated at 37° C., 5% CO2 for an additional 3-4 h. The absorbance was read at 490 nm in a spectrophotometer and the percentage of cell titer relative to DMSO-treated cells was calculated after correcting for background by subtracting the blank well's signal. IC50 values were calculated using the GraphPad Prism software.

hIL-6 = assay: Inhibition of hIL-6 mRNA transcription in LPS-stimulated U937 cells; format: cell-based, Human; conditions: Homo sapiens, U-937, PMA-differentiated U937 cells, 1 h pretreatment, LPS 3 h, read-out: IL-6 activity
Description: Human leukemic monocyte lymphoma U937 cells (CRL-1593.2) were plated at a density of 3.2×10^4 cells per well in a 96-well plate in 100 μL RPMI-1640 containing 10% FBS and penicillin/streptomycin, and differentiated into macrophages for 3 days in 60 ng/mL PMA ([…]) at 37° C. in 5% CO2 prior to the addition of compound. The cells were pretreated for 1 h with increasing concentrations of test compound in 0.1% DMSO prior to stimulation with 1 ug/mL lipopolysaccharide from Escherichia coli. Triplicate wells were used for each concentration. The cells were incubated at 37° C., 5% CO2 for 3 h before the cells were harvested. At time of harvest, media was removed and cells were rinsed in 200 μL PBS. Cells were harvested using the mRNA Catcher PLUS kit according to manufacturer's instructions. The eluted mRNA was then used in a one-step quantitative real-time PCR reaction using components of the RNA UltraSense™ One-Step Kit (Life Technologies) together with Applied Biosystems TaqMan® primer-probes for hIL-6 and Cyclophilin. Real-time PCR plates were run on a ViiA™7 real time PCR machine (Applied Biosystems), data was analyzed, normalizing the Ct values for hIL-6 to an internal control, prior to determining the fold expression of each sample, relative to the control.

cMYC = assay: Inhibition of cMYC expression in MV4-11 cells (real-time PCR); format: cell-based, Human; conditions: Homo sapiens, 3 h, cMYC mRNA, read-out: c-myc activity
Description: MV4-11 cells (CRL-9591) were plated at a density of 2.5×10^4 cells per well in 96 well U-bottom plates and treated with increasing concentrations of test compound or DMSO (0.1%) in IMDM media containing 10% FBS and penicillin/streptomycin, and incubated for 3 h at 37° C. Triplicate wells were used for each concentration. Cells were pelleted by centrifugation and harvested using the mRNA Catcher PLUS kit according to manufacturer's instructions. The eluted mRNA isolated was then used in a one-step quantitative real-time PCR reaction, using components of the RNA UltraSense™ One-Step Kit (Life Technologies) together with Applied Biosystems TaqMan® primer-probes for cMYC and Cyclophilin, Real-time PCR plates were run on a ViiA™7 real time PCR machine (Applied Biosystems), data was analyzed, normalizing the Ct values for cMYC to an internal control, prior to determining the fold expression of each sample, relative to the control.

[1] = biological target: T1, Brd4 bromodomain 1 (BRD4(1)) (Homo sapiens, UniProt O60885); assay: Inhibition of tetra-acetylated histone H4 binding to BET bromodomain (HTRF/FRET); conditions: His-tagged bromodomain 200 nM, biotinylated tetra-acetylated histone H4 peptide, 2 h room temperature
T1 construct: made in house; host or cells: E. coli BL21(DE3)
Description: Proteins were cloned and overexpressed with a N-terminal 6×His tag, then purified by nickel affinity followed by size exclusion chromatography. Briefly, E. coli BL21(DE3) cells were transformed with a recombinant expression vector encoding N-terminally Nickel affinity tagged bromodomains from Brd2, Brd3, Brd4. Cell cultures were incubated at 37° C. with shaking to the appropriate density and induced overnight with IPTG. The supernatant of lysed cells was loaded onto Ni-IDA column for purification, Eluted protein was pooled, concentrated and further purified by size exclusion chromatography. Fractions representing monomeric protein were pooled, concentrated, aliquoted, and frozen at −80° C. for use in subsequent experiments.
Binding of tetra-acetylated histone H4 and BET bromodomains was confirmed by a Homogenous Time Resolved Fluorescence Resonance Energy Transfer (HTRF®) method, N-terminally His-tagged bromodomains (200 nM) and biotinylated tetra-acetylated histone H4 peptide (25-50 nM, Millipore) were incubated in the presence of Europium Cryptate-labeled streptavidin (Cisbio Cat, #610SAKLB) and XL665-labeled monoclonal anti-His antibody (Cisbio Cat.1461HISXLB) in a white 96 well microtiter plate (Greiner). For inhibition assays, serially diluted test compound was added to these reactions in a 0.2% final concentration of DMSO. Duplicate wells were used for each concentration tested. Final buffer concentrations were 30 mM HEPES pH 7.4, 30 mM NaCl, 0.3 mM CHAPS, 20 mM phosphate pH 7.0, 320 mM KF, 0.08% BSA. After a 2 h incubation at room temperature, fluorescence was measured at 665 and 620 nm with a SynergyH4 plate reader (Biotek). The binding inhibitory activity was shown by a decrease in […] relative to 620 nm fluorescence. IC50 values were determined from a dose response curve.

Compound | IC50 (Human AML MV-4-11 cells) [nM] | IC50 (hIL-6) [nM] | IC50 (cMYC) [nM] | IC50 [1] [nM] | Cell Proliferation activity (Human AML MV-4-11 cells)
COc1ncc(-c2c(C)noc2C)cc1Oc1ccccc1 [Example 4, 4-(6-methoxy-5-phenoxypyridin-3-yl)-3,5-dimethylisoxazole] | 3000 to 30000 | 300 to 3000 | 300 to 3000 | 300 to 3000 | –
COc1ncc(-c2c(C)noc2C)cc1NC(C)c1ccccc1 (centres unmarked) [Example 5, 5-(3,5-dimethylisoxazol-4-yl)-2-methoxy-N-(1-phenylethyl)pyridin-3-amine] | 300 to 3000 | 300 to 3000 | 300 to 3000 | 300 to 3000 | –
COc1ncc(-c2c(C)noc2C)cc1NC(C)c1ccc(F)cc1 (centres unmarked) [Example 12, 5-(3,5-dimethylisoxazol-4-yl)-N-(1-(4-fluorophenyl)ethyl)-2-methoxypyridin-3-amine] | 300 to 3000 | 300 to 3000 | 300 to 3000 | ≤ 300 | –
COc1cccc(Nc2cc(-c3c(C)noc3C)cnc2OC)c1 [Example 13, 5-(3,5-dimethylisoxazol-4-yl)-2-methoxy-N-(3-methoxyphenyl)pyridin-3-amine] | 300 to 3000 | 300 to 3000 | – | ≤ 300 | –
COc1ncc(-c2c(C)noc2C)cc1Oc1cccnc1 [Example 15, 4-(6-methoxy-5-(pyridin-3-yloxy)pyridin-3-yl)-3,5-dimethylisoxazole] | – | – | – | 3000 to 30000 | –
COc1ncc(-c2c(C)noc2C)cc1NC(C)c1ccc(Cl)cc1 (centres unmarked) [Example 22, N-(1-(4-chlorophenyl)ethyl)-5-(3,5-dimethylisoxazol-4-yl)-2-methoxypyridin-3-amine] | 3000 to 30000 | – | 3000 to 30000 | 300 to 3000 | –
Cc1noc(C)c1-c1cnc(OCc2ccccc2)c(NCc2ccccc2)c1 [Example 25, N-benzyl-2-(benzyloxy)-5-(3,5-dimethylisoxazol-4-yl)pyridin-3-amine] | 3000 to 30000 | – | – | 300 to 3000 | –
Cc1noc(C)c1-c1cnc(OC(C)C)c(NCc2ccccc2)c1 [Example 27, N-benzyl-5-(3,5-dimethylisoxazol-4-yl)-2-isopropoxypyridin-3-amine] | 3000 to 30000 | 300 to 3000 | 3000 to 30000 | ≤ 300 | –
COc1ncc(-c2c(C)noc2C)cc1-c1c(C)noc1C [Example 34, 4,4′-(2-methoxypyridine-3,5-diyl)bis(3,5-dimethylisoxazole)] | – | 3000 to 30000 | 3000 to 30000 | ≤ 300 | –
CNc1ncc(-c2c(C)noc2C)cc1Nc1cccnc1C [Example 69, 5-(3,5-Dimethylisoxazol-4-yl)-N2-methyl-N3-(2-methylpyridin-3-yl)pyridine-2,3-diamine] | – | – | – | 300 to 3000 | –

Second part, led by results:

IC50 (Human AML MV-4-11 cells) [nM] | IC50 (hIL-6) [nM] | IC50 (cMYC) [nM] | IC50 [1] [nM] | Compound | Cell Proliferation activity (Human AML MV-4-11 cells)
3000 to 30000 | 300 to 3000 | 300 to 3000 | ≤ 300 | COc1ncc(-c2c(C)noc2C)cc1Nc1cccc(F)c1 [Example 3, 5-(3,5-dimethylisoxazol-4-yl)-N-(3-fluorophenyl)-2-methoxypyridin-3-amine] | –
3000 to 30000 | 300 to 3000 | – | ≤ 300 | COc1ncc(-c2c(C)noc2C)cc1Nc1cccc(C)c1 [Example 7, 5-(3,5-dimethylisoxazol-4-yl)-2-methoxy-N-(m-tolyl)pyridin-3-amine] | –
3000 to 30000 | 300 to 3000 | 3000 to 30000 | ≤ 300 | COc1ncc(-c2c(C)noc2C)cc1NCc1ccc(Cl)s1 [Example 8, N-((5-chlorothiophen-2-yl)methyl)-5-(3,5-dimethylisoxazol-4-yl)-2-methoxypyridin-3-amine] | –
– | – | – | 300 to 3000 | COc1ncc(-c2c(C)noc2C)cc1NCc1ccc(C(F)(F)F)cc1 [Example 16, 5-(3,5-dimethylisoxazol-4-yl)-2-methoxy-N-(4-(trifluoromethyl)benzyl)pyridin-3-amine] | –
3000 to 30000 | 300 to 3000 | 3000 to 30000 | 300 to 3000 | COc1ncc(-c2c(C)noc2C)cc1NCc1ccncc1 [Example 17, 5-(3,5-dimethylisoxazol-4-yl)-2-methoxy-N-(pyridin-4-ylmethyl)pyridin-3-amine] | –
3000 to 30000 | 300 to 3000 | 3000 to 30000 | ≤ 300 | COc1ncc(-c2c(C)noc2C)cc1Nc1ccccc1F [Example 18, 5-(3,5-dimethylisoxazol-4-yl)-N-(2-fluorophenyl)-2-methoxypyridin-3-amine] | –
300 to 3000 | 300 to 3000 | 300 to 3000 | ≤ 300 | COc1ncc(-c2c(C)noc2C)cc1Nc1ccc(F)cc1 [Example 19, 5-(3,5-dimethylisoxazol-4-yl)-N-(4-fluorophenyl)-2-methoxypyridin-3-amine] | –
3000 to 30000 | 300 to 3000 | 3000 to 30000 | ≤ 300 | COc1ncc(-c2c(C)noc2C)cc1NCc1cc(C)sc1C [Example 20, 5-(3,5-dimethylisoxazol-4-yl)-N-((2,5-dimethylthiophen-3-yl)methyl)-2-methoxypyridin-3-amine] | –
300 to 3000 | 300 to 3000 | 300 to 3000 | ≤ 300 | COc1ncc(-c2c(C)noc2C)cc1NCc1ccccn1 [Example 21, 5-(3,5-dimethylisoxazol-4-yl)-2-methoxy-N-(pyridin-2-ylmethyl)pyridin-3-amine] | –
3000 to 30000 | – | 3000 to 30000 | 300 to 3000 | COc1ncc(-c2c(C)noc2C)cc1NCc1ccc(Br)cc1 [Example 23, N-(4-bromobenzyl)-5-(3,5-dimethylisoxazol-4-yl)-2-methoxypyridin-3-amine] | –
300 to 3000 | 300 to 3000 | 300 to 3000 | ≤ 300 | COc1ncc(-c2c(C)noc2C)cc1NC(C)c1ccccn1 (centres unmarked) [Example 24, 5-(3,5-dimethylisoxazol-4-yl)-2-methoxy-N-(1-(pyridin-2-yl)ethyl)pyridin-3-amine] | –
3000 to 30000 | 3000 to 30000 | 3000 to 30000 | 300 to 3000 | COc1ncc(-c2c(C)noc2C)cc1NCCc1ccccc1 [Example 26, 5-(3,5-dimethylisoxazol-4-yl)-2-methoxy-N-phenethylpyridin-3-amine] | –
3000 to 30000 | 300 to 3000 | – | ≤ 300 | COc1ncc(-c2c(C)noc2C)cc1NCc1ncccn1 [Example 48, 5-(3,5-dimethylisoxazol-4-yl)-2-methoxy-N-(pyrimidin-2-ylmethyl)pyridin-3-amine] | –
– | – | – | ≤ 300 | COc1ncc(-c2c(C)noc2C)cc1NCc1ncccc1Cl [Example 49, N-((3-chloropyridin-2-yl)methyl)-5-(3,5-dimethylisoxazol-4-yl)-2-methoxypyridin-3-amine] | Not Active
